Assay results from patent US20240277767A1, “METHODS AND USES” (PROLEUKOCYTE AB, priority 2021, published 2024).

Columns and labels:
cancer cells = conditions: high doses (Stafford et al., 2018; Rigobello et al., 2008); cited from earlier work
Nrf2 = biological target: T1, Nrf2 (Homo sapiens, UniProt Q16236); conditions: presumably via inhibition of TrxR (Saei et al., 2020); cited from earlier work
T1 sequence (Q16236 1-605): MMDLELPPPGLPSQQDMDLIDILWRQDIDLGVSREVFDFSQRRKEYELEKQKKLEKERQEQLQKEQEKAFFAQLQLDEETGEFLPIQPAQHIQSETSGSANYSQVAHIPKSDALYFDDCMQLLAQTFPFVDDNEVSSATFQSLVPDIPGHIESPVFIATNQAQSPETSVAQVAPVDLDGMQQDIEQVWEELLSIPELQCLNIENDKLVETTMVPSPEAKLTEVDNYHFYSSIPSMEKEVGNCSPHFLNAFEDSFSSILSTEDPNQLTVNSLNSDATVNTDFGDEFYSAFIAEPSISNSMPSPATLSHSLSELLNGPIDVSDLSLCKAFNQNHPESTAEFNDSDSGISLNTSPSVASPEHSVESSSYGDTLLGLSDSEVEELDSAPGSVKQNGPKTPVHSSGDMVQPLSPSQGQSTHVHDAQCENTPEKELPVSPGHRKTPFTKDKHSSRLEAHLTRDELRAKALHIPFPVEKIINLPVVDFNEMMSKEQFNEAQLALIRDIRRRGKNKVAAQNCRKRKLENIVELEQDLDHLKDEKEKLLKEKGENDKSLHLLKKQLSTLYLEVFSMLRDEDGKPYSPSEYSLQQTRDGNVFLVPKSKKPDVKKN

NK cells [1] = experiment: Phenotype analysis of NK cell surface markers (flow cytometry); assay type: cell-based, human
Protocol: All antibodies (see Table 1) and FACS reagents were used according to manufactures recommendation, if not stated otherwise. All antibodies had been titrated for optimal signal-to-noise ratio and all staining's were performed in PBS supplemented with 1% FBS. All staining's contained a live/dead marker. Samples were fixed with 2% PFA (Thermo scientific) for 15 min before acquired on a NovoCyte (ACEA Biosciences) and analysed using FlowJo Software (TreeStar).
For evaluating CD16 expression, NK cells were treated as described above. After H2O2 treatment, NK cells were incubated for 2 h in RPMI 2% AB serum, stained with anti-CD3, anti-CD56 and anti-CD16 and analyzed.

NK cells [2] = experiment: ADCC: NK cells with RAJI cells coated with Rituximab or Ofatumumab; assay type: cell-based, human
Protocol: Lymphocytes were isolated and pre-treated when indicated, with compound and H2O2, as described above. For degranulation/measuring CD107a expression, NK cells were co-cultured with K562 tumour cells at an effector target ratio 1:1 in the presence of anti-CD107a in U-bottom plates. After 2 h, GolgiStop™ and GolgiPlug™ (BD Bioscience) were added and cells were harvested after an additional 4 h co-culture and stained for CD56 and CD3, as described above. For positive control, 25 ng/ml PMA (Sigma Aldrich) and 500 ng/mL Ionomycin (Sigma Aldrich) were added.
For cytotoxic assay, a standard 4 h [Cr^51]-release assay was used. Briefly, tumour cells were harvested and labeled with 51Cr (PerkinElmer) and used as target cells. Effector cells, NK cells and T cells, were co-cultured in 96-well V-bottom plate with indicated tumour cells at the stated effector target ratio (E:T). The supernatant was collected onto LUMA plates (Perkin-Elmer) and radioactivity/tumour cell lysis was detected by MicroBeta2 (Perkin Elmer). Target cell killing measured by % specific lysis and calculated using the formula: ((experimental release-spontaneous release)/(maximum release-spontaneous release))*100.
For analyzing ADCC, NK cells were cultured with RAJI cells and Rituximab (0.5 μg/mL, MabThera, Roche) or Ofatumumab (0.05 μg/mL, Arzerra, Novartis).

ANRU TIL = ANRU TIL exposed to activated autologous monocytes: spheroid caspase activation and IFNγ release; assay type: cell-based, human; conditions: for Caspase activity in spheroids co-cultured with TIL exposed to activated autologous monocytes: highest dose of AUF, vs untreated control TIL
Protocol: For Nrf2 inhibition, NK cells were treated with 50 μM ML-385 (Sigma-Aldrich) in parallel. For H2O2 treatment, lymphocyte cells were washed and resuspended to 1×10^6 cells/mL in medium and exposed to indicated H2O2 (Sigma-Aldrich) concentration for 1 h at 37° C. Cells were washed with medium and then used for further experiments. For monocyte experiments, autologous NK cell-monocytes or TIL-monocytes were used. NK cells/TIL were isolated and pre-treated with 0.5 μg/mL AUF, as described above, and co-cultured with unstimulated at the ratio, 1:2 M:NK, or stimulated monocytes at the ratio, 1:1 M:NK, if not indicated otherwise. Stimulated monocytes were activated with 100 ng/ml PMA for 1 min, washed and added at indicated ratio, the number of NK cell/TIL was kept constant. As control, H2O2 was used at indicated concentration. Cells were co-cultured for 2 h and then effector cells were stained for intracellular ROS (see flow cytometry) or used as effector cells in Cr^51 release assay (E:T ratio 10:1).
For cytokine release assay, NK cells and TIL were cultured with indicated tumour cells at the effector target ratio 4:1 (E:T) for 24 h in U-bottom plates. IFNγ secretion was measured using human IFN-γ ELISA development kit (Mabtech) following the manufacturer's instructions.
5000 ANRU tumour cells were seeded per well in Ultra-Low Attachment 96-well plates (Corning Costar) in culture medium containing 2% Matrigel (Corning) for 3 days. 1×10^4AUF pre-treated TIL (see above), and spheroids were co-cultured and monitored for 48 h with the IncuCyte live cell imaging system (Essen Bioscience) in the presence of CellEvent™ Caspase 3/7 Green detection agent (Invitrogen).

[3] = upon addition of H2O2, vs control NK cells

## CC(=O)OC[C@H]1O[C@@H]([S-])[C@H](OC(C)=O)[C@@H](OC(C)=O)[C@@H]1OC(C)=O.CCP(CC)CC.[Au+] [AUF, Auranofin]
Cancer cells
  Toxicity / cell death in cancer cells: toxic and induce cell death
Nrf2
  Activation of Nrf2: strong activator of Nfr2
NK cells [1]; DNAM-1, granzyme B, perforin, CD57, CD69, NKG2A, NKG2D, NKp40, NKp46
  Differences in NK cell surface markers with and without AUF pre-treatment: few differences
NK cells [1]; untreated compared to AUF pre-treated NK cells
  Frequency of NK cells expressing CD16 after exposure to H2O2: significant decrease in frequency of untreated NK cells expressing CD16
NK cells [1]; upon exposure to H2O2
  NKp30 expression on NK cells: increased expression
NK cells [1]; with exposure to H2O2
  DNAM-1 and NKp46 on NK cells: reduced frequency of positive NK cells and/or reduced cell surface levels
NK cells [1]; without exposure to H2O2
  DNAM-1, CD69 and NKG2D on NK cells: reduced frequency of positive NK cells and/or reduced cell surface levels
NK cells [2]; [3]
  Ability of NK cells to degranulate in response to anti-CD20 coated RAJI cells: significant increase
  Ability of NK cells to lyse anti-CD20 coated RAJI cells: significant increase
NK cells [2]; without the presence of ROS
  Capacity of NK cells to recognize anti-CD20 coated RAJI cells: increased capacity to recognize the anti-CD20 coated RAJI cells
ANRU TIL; 2D grown ANRU tumour cells
  Cytokine release (IFNγ) by TIL impaired by monocyte derived ROS: partially be rescued
ANRU TIL
  Caspase activity in spheroids co-cultured with TIL exposed to activated autologous monocytes: increased caspase activity
ANRU TIL; listed as auranofin
  Caspase activity in spheroids co-cultured with TIL exposed to activated autologous monocytes: increased elimination of spheroid grown tumour cells
